Paper PMC10411625, “Rationally designed stapled peptides allosterically inhibit PTBP1–RNA-binding” (Chemical Science, 2023)
Where a chain is given by its changes, count along the chain named. {FAM} = fluorescein (FAM) label

Columns and labels:
[1] = molecular target: T1, PTBP1 RRM1 (MBP-RRM1, G41-A163) (Homo sapiens, UniProt P26599); assay: Fluorescence polarization binding of FAM-RNA to PTBP1 RRM1; details: FP, 5 nM FAM-labelled RNA, 20 mM sodium phosphate pH 8.0, 50 mM NaCl, 0.001% Tween20, 20 °C, 30 min
T1 construct: (G41-A163); His tag; made in house; host or cells: E. coli BL21 DE3 RIL
T1 sequence (P26599 41-163): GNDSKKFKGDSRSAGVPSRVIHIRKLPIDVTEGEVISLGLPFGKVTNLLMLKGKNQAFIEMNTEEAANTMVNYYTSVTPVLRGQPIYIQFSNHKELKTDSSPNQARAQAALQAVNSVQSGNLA
Source text: (§1) To confirm the role of the α3-helix described by the Allain group we performed fluorescence polarization (FP) experiments with various PTBP1 protein constructs and two RNA sequences.[25] The first set of proteins contained either the single RRM1, RRM1 lacking the α3-helix (RRM1Δα3) or RRM1–L151G (Fig. 1A and C). The L151G mutation was previously described by the Allain group to break the fold of the helix and reduce RNA-binding 2.3 fold as measured by ITC.[25] As tracer in the FP experiments, we used a FAM-labelled short RNA (RNA-1) with a single PTBP1 binding site (UCUU) which can accommodate a single RRM (Fig. 1B). […] The L151G mutation reduced binding 3.6-fold which is somewhat higher than what was observed previously but in the same range. […] To see whether the effect of the helix was also present in larger constructs we measured the affinity of RRM1 and 2 combined (RRM12) as well as the RRM12–L151G mutant. […]
(§2) size exclusion chromatography (Superdex 75 16/60 or 26/60) with SEC buffer (50 mM Tris, 200 mM NaCl). Protein homogeneity was assessed by the size exclusion chromatogram and purity was checked by SDS-PAGE analysis to be >= 90%.
(§3) The gene encoding for SRSF1-RRM12 (1-195) was subcloned into pOPIN-His expression vector and expressed in E. coli BL21 (DE3). […]
(§4) Fluorescence polarization assay with PTBP1 […]

[2] = molecular target: T2, PTBP1 RRM1Δα3 (RRM1 lacking the α3-helix) (Homo sapiens, UniProt P26599); assay: Fluorescence polarization binding of FAM-RNA to PTBP1 RRM1Δα3; details: FP, 5 nM FAM-labelled RNA, 20 mM sodium phosphate pH 8.0, 50 mM NaCl, 0.001% Tween20, 20 °C, 30 min
T2 construct: (G41-S140); His tag (N); made in house; host or cells: E. coli BL21 DE3 RIL
Source text: as §1, §2, §3, §4

[3] = molecular target: T3, PTBP1 RRM1-L151G (Homo sapiens, UniProt P26599, L151G); assay: Fluorescence polarization binding of FAM-RNA to PTBP1 RRM1-L151G
T3 construct: (G41-A163,; His tag; made in house; host or cells: E. coli BL21 DE3 RIL
Source text: as §1, §2, §3, §4

[4] = molecular target: T4, PTBP1 RRM2 (MBP-RRM2, M177-D284) (Homo sapiens, UniProt P26599); assay: Fluorescence polarization binding of FAM-RNA to PTBP1 RRM2; details: FP, 5 nM FAM-labelled RNA, 20 mM sodium phosphate pH 8.0, 50 mM NaCl, 0.001% Tween20, 20 °C, 30 min
T4 construct: (M177- D284); His tag; made in house; host or cells: E. coli BL21 DE3 RIL
Source text: as §1, §2, §3, §4

[5] = molecular target: T5, PTBP1 RRM12 (P57-V265) (Homo sapiens, UniProt P26599); assay: Fluorescence polarization binding of FAM-RNA to PTBP1 RRM12; details: FP, 5 nM FAM-labelled RNA, 20 mM sodium phosphate pH 8.0, 50 mM NaCl, 0.001% Tween20, 20 °C, 30 min
T5 construct: (P57-V265); MBP (from pMAL vector); His tag; made in house; host or cells: E. coli BL21 DE3 RIL
T5 sequence (P26599 57-265): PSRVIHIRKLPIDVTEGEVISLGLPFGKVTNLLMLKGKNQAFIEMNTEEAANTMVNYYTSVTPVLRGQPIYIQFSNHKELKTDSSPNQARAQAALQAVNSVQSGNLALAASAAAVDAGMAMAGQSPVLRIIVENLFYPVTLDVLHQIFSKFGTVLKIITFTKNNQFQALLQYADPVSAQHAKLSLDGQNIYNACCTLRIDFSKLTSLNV
Source text: as §1, §2, §3, §4

[6] = molecular target: T6, PTBP1 RRM12-L151G (Homo sapiens, UniProt P26599, L151G); assay: Fluorescence polarization binding of FAM-RNA to PTBP1 RRM12-L151G
T6 construct: (P57-V265); MBP (from pMAL vector); His tag; made in house; host or cells: E. coli BL21 DE3 RIL
T6 sequence (P26599 57-265 L151G): T5 sequence (P26599 57-265) with L95G
Source text: as §1, §2, §3, §4

[7] = FP, 5 nM FAM-labelled RNA, 20 mM sodium phosphate pH 8.0, 50 mM NaCl, 0.001% Tween20, 20 °C, 30 min

T3 sequence (P26599 41-163 L151G): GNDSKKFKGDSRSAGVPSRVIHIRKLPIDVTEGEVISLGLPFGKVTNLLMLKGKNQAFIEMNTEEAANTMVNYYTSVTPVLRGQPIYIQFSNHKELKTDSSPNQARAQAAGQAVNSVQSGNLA
T4 sequence (P26599 177-284): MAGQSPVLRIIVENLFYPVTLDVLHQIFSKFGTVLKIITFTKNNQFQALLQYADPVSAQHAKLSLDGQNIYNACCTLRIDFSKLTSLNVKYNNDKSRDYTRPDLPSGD

Substance: RNA-2: FAM-AUUUUUCCAUCUUUGUAUC, sequence of microRNA miR-29b-2, two poly(U) motifs (RNA, 5' {FAM}, backbone not given here)
- Kd [1]: 0.09 ± 0.023 µM
- Kd [2]: 6.45 ± 1.36 µM
- Kd [3, 7]: 0.218 ± 0.011 µM
- reduction of RNA affinity by L151G mutation, RRM1-L151G versus RRM1 ([3]; from FP KD values): 2.4 fold
- Kd [4]: 0.721 ± 0.308 µM
- Kd [5]: 0.017 ± 0.002 µM
- Kd [6, 7]: 0.042 ± 0.001 µM
- reduction of RNA affinity by L151G mutation, RRM12-L151G versus RRM12 ([6]; from FP KD values): 2.5 fold
